The results in this text go back to patent US9567318B2, “Substituted pyrimidine compounds and uses thereof” (Memorial Sloan-Kettering Cancer Center, priority 2009, dated 2017).

Holding throughout (assay type): cell-based, human
For experiment [1], the system named is SKBr3 HER2+ breast cancer cells. As to the kind of experiment: Growth Inhibition Assay (Alamar blue), SKBr3. The following applies: Homo sapiens, SK-BR-3, 72 h. As for the experimental part: The IC50 values listed for some of these compounds illustrate the antiproliferative effects of the subject compounds and were obtained using the Growth Inhibition assays described herein.
Growth Inhibition Assay. Antiproliferative effects of inhibitors were evaluated using the dye Alamar blue. This reagent offers a rapid objective measure of cell viability in cell culture, and it uses the indicator dye resazurin to measure the metabolic capacity of cells, an indicator of cell viability. Briefly, cells were plated on Costar 96-well plates. For attached cells (such as SKBr3, MDA-MB-468, LNCaP, MRCS), 8,000 cells/well were used. For suspension cells (such as MOLM-13, Kasumi-1, OCI-Ly7, PBL), 20,000 cells/well were plated. Cells were allowed to incubate for 24 h at 37° C. before drug treatment. Drugs were added in triplicates at the indicated concentrations, and the plate was incubated for 72 h. Alamar Blue (440 μM) was added, and the plate read 6 h later using the Analyst GT (Fluorescence intensity mode, excitation 530 nm, emission 580 nm, with 560=dichroic mirror). Results were analyzed using the Softmax Pro software. The percentage cell growth inhibition was calculated by comparing fluorescence readings obtained from treated versus control cells, accounting for initial cell population (time zero).
(The colour change of resazurin is a common sign of viable cells or microbes.)

The subject of a further experiment is Kasumi-1 cells. As to the kind of experiment: Apoptosis, acridine orange/ethidium bromide, Kasumi-1. The following applies: 10 μM, 24 h. The method, then:
FIG. 13. YK5 has a higher apoptotic effect than Hsp90 inhibitors in select tumors. (a-d) Cells were treated with the indicated concentrations of inhibitors for the times presented. (a,b) Apoptotic cells were quantified by dual acridine orange/ethidium bromide staining as described in Methods. (c,d) Molecular markers of apoptosis (PARP cleavage) were analyzed in cells treated for 24 h with indicated concentrations of inhibitors (c) or for the indicated times with the indicated concentration of inhibitors (d) by western blotting. (e) MDAMB-468 cells were treated with vehicle, TNFα (20 ng/ml), YK5 (1 μM), pretreated with YK5 for 2 h before TNFα or co-treated, and cells were lysed for western blot analysis (left), or cell death was quantified by analyzing the hypodiploid population upon propidium iodine staining (right). […]
To determine whether cell death by YK5 was attributable to apoptosis, cells were treated with YK5 and effects on morphology, as well as on several effectors and mediators of apoptosis were analyzed (FIG. 13). To quantify the number of cells undergoing apoptosis, cells were stained with acridine orange/ethidium bromide (AO/EB) and analyzed under a fluorescence microscope for the percentage of viable, apoptotic (early and late) and necrotic cells. […]
Apoptosis-Acridine Orange/Ethidium Bromide. […] Percentage of apoptotic cells was determined from 200-300 cells counted in each group.

The test system of experiment [2] is Mia-PaCa2, AsPC-1, BxPC3 and PL45 cells. The experiment is described as follows: Apoptosis, acridine orange/ethidium bromide, pancreatic cancer cells. The following applies: 10 μM, 24-48 h. The method, then:
To determine whether cell death by YK5 was attributable to apoptosis, cells were treated with YK5 and effects on morphology, as well as on several effectors and mediators of apoptosis were analyzed (FIG. 13). To quantify the number of cells undergoing apoptosis, cells were stained with acridine orange/ethidium bromide (AO/EB) and analyzed under a fluorescence microscope for the percentage of viable, apoptotic (early and late) and necrotic cells. […] Most sensitive to YK5 were pancreatic cancer cells.
Apoptosis-Acridine Orange/Ethidium Bromide. Apoptosis was determined using acridine orange/ethidium bromide (AO/EB) double staining. Acridine orange is taken up by both viable and nonviable cells and emits green fluorescence if intercalated into double stranded nucleic acid (DNA) or red fluorescence if bound to single stranded nucleic acid (RNA). Ethidium bromide is taken up only by nonviable cells and emits red fluorescence by intercalation into DNA. (1) Viable cells have uniform green nuclei with organized structure. […] Following staining with Acridine Orange and Ethidium Bromide cells were visualized with a fluorescent microscope (Zeiss Axiovert 40 CFL) and counted. Percentage of apoptotic cells was determined from 200-300 cells counted in each group.

Another experiment has as its system MDA-MB-468 cells. The experiment is described as follows: Propidium iodide staining and flow cytometry (cell cycle, hypodiploid population, TNFα). The following applies: YK5 1 μM, TNFα 20 ng/ml. The method, then: FIG. 12. YK5 affects the major hallmarks of cancer: inhibits proliferation and invasiveness and arrests cancer cells in the cell cycle. (a) The indicated cancer cells were incubated with increasing concentrations of inhibitors and growth over 72 h was assessed. Y-axis values below 0% represent cell death of the starting population. Drugs were assayed in triplicate. (b) Mice (n=5) bearing MDA-MB-468 subcutaneously (s.c.) xenografted tumors that reached a volume of approximately 100-200 mm^3, were administered i.t. YK5 or vehicle as described in Methods. Tumor volume (mm^3) was estimated from caliper measurements. (c) Cells were treated for 24 h with indicated concentrations of YK5. DNA content was analyzed by propidium iodide staining and flow cytometry (left), whereas proteins by western blotting (right). (d) Hsp70 client proteins isolated by YK55-beads from SKBr3 and MDA-MB-468 extracts (500 μg) were analyzed by western blotting. Control beads contain D-biotin (100 μM) attached. (e) MDA-MB-231 breast cancer cells were treated for 24 h with YK5 (1 μM) and protein extracts were subjected to immunoblotting (upper) or pre-treated for 24 h with vehicle or YK5, and viable cells able to migrate through Matrigel over a 20 h period were quantified and data graphed (lower). […]
FIG. 13. […] (a,b) Apoptotic cells were quantified by dual acridine orange/ethidium bromide staining as described in Methods. […]

Turning to `C=CC(=O)Nc1cc(N)nc(Sc2c(OC)nc(N3CCN(C)CC3)nc2OC)n1` [YK5, N-(6-amino-2-(4,6-dimethoxy-2-(4-methylpiperazin-1-yl)pyrimidin-5-ylthio)pyrimidin-4-yl)acrylamide], in experiment [1], the IC50 (as a rule, the midpoint of a concentration-inhibition curve) was 0.455 µM. In addition, the cells undergoing apoptosis in the experiment on Kasumi-1 cells is given as 70%. In experiment [2], the “apoptosis in pancreatic cancer cells” value is listed as “induced significant apoptosis”. Besides, the “apoptotic effect of TNFα” value in the experiment on MDA-MB-468 cells is listed as “increased the apoptotic effect of TNFα”.
